In ChEMBL document CHEMBL2176887, “Chemokine receptor antagonists” (J Med Chem, 2012):

Tests used:
[1] = Half life in human; assay type: ADME, organism-based; conditions: in vivo
[2] = Binding affinity to rat CCR1 by radioligand binding assay
[3] = biological target: T1, Muscarinic acetylcholine receptor M2 (Homo sapiens, UniProt P08172)
T1 sequence (P08172 whole entry): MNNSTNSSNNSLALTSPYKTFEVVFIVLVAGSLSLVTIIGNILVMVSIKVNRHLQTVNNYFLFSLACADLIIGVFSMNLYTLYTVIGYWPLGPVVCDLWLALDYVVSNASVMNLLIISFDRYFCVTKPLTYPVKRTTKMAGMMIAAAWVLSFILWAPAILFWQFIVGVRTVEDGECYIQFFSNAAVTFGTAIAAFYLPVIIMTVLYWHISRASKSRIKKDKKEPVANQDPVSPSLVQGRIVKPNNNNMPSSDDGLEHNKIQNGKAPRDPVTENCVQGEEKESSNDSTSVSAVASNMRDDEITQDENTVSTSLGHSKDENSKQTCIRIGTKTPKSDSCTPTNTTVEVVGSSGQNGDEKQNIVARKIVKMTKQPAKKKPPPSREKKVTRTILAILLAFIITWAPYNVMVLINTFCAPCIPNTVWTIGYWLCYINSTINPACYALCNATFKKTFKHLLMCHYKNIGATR
Description: Binding affinity to muscarinic M2 receptor

[4] = Oral bioavailability in rat; assay type: ADME, organism-based; conditions: in vivo
Cavia porcellus = species: Cavia porcellus; assay: Inhibition of CCL3-induced immune cell recruitment in guinea pig sensitization model; assay type: functional, organism-based
[5] = biological target: C-C chemokine receptor type 5 (Homo sapiens, UniProt P51681)
[6] = biological target: T2, C-C chemokine receptor type 1 (Homo sapiens, UniProt P32246)
T2 sequence (P32246 whole entry): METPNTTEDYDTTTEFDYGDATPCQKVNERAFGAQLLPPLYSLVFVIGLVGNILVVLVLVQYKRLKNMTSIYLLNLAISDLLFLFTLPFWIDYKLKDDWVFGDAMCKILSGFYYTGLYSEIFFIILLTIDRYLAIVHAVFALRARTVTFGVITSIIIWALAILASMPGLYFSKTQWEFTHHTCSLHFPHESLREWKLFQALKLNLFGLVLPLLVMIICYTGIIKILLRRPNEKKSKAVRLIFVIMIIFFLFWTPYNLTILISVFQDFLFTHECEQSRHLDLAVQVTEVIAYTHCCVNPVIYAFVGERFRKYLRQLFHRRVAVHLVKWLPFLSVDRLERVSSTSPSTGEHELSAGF

physchem = conditions: octanol/water
Description: Lipophilicity, log P of the compound

[7] = Oral bioavailability in dog; assay type: ADME, organism-based, Canis lupus familiaris; conditions: in vivo
[8] = Half life in rat; assay type: ADME, organism-based; conditions: in vivo

Sequence of C-C chemokine receptor type 5 (P51681 whole entry): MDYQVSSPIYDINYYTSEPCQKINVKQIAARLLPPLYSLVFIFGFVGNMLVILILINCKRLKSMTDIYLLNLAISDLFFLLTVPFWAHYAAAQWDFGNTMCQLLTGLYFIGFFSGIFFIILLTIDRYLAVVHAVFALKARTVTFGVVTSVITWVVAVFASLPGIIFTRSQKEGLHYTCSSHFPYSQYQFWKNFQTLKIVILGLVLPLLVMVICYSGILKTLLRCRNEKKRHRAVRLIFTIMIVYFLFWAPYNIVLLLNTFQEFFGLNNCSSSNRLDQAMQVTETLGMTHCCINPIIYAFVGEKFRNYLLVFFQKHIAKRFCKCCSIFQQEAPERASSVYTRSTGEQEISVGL

| Ki [3] | bioavailability [4] | Ki [5] | Ki [6] | logP (physchem) | bioavailability [7] | half-life [8] | Structure (SMILES) | half-life [1] | Kd [2] | EC50 (Cavia porcellus) |
| --- | --- | --- | --- | --- | --- | --- | --- | --- | --- | --- |
|  |  |  |  |  |  |  | C[C@@H]1CN(Cc2ccc(F)cc2)CCN1C(=O)COc1ccc(Cl)cc1NC(N)=O [BX 471 FREE BASE] | 2.3 h | 121 nM |  |
| 1.3 nM | 35% | 1 nM | 2.3 nM | 5.1 | 100% | 3 h | CC1(C)CN(CC/C=C2/c3cc(C(=O)O)ccc3OCc3ncccc32)C[C@H](c2ccc(Cl)cc2)[C@H]1O |  |  | 0.03 mg/kg |
